Assay results as given in ChEMBL document CHEMBL1201862, “PubChem BioAssay data set” (2004).
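Protocol summary: plate cells (96-well), add compound at 5 concentrations, incubate 48 h, interpolate endpoints linearly. GI50 = concentration required for 50% inhibition of growth.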 Active and inactive are the calls of the source. Cut-off read from the data, not from the text of the source: active = GI50 up to about 1.1 µM and inactive = higher.

Legend:
Assay in all cases: NCI tumour cell line growth inhibition, 48 h
786-0 = system: 786-0
NCI-H23 = system: NCI-H23
M19-MEL = system: M19-MEL
UO-31 = system: UO-31
HCT-116 = system: HCT-116
RXF 393 = system: RXF 393
ACHN = system: ACHN
HOP-62 = system: HOP-62
OVCAR-8 = system: OVCAR-8
KM-20L2 = system: KM-20L2
HL-60 = system: HL-60
OVCAR-3 = system: OVCAR-3
HCC 2998 = system: HCC 2998
TK-10 = system: TK-10
HT-29 = system: HT-29
SR = system: SR
HOP-18 = system: HOP-18
RPMI-8226 = system: RPMI-8226
LOX IMVI = system: LOX IMVI
SK-MEL-28 = system: SK-MEL-28
LXFL 529 = system: LXFL 529
SNB-78 = system: SNB-78
UACC-62 = system: UACC-62
U-251 = system: U-251
SNB-75 = system: SNB-75
UACC-257 = system: UACC-257
COLO 205 = system: COLO 205
SNB-19 = system: SNB-19
HOP-92 = system: HOP-92
OVCAR-5 = system: OVCAR-5
HCT-15 = system: HCT-15
EKVX = system: EKVX
SK-MEL-2 = system: SK-MEL-2
SF-539 = system: SF-539
SF-295 = system: SF-295
A549 = system: A549
RXF 631 = system: RXF 631
MOLT-4 = system: MOLT-4
NCI-H226 = system: NCI-H226
Malme-3M = system: Malme-3M
SN12C = system: SN12C
XF498 = system: XF498
SW-620 = system: SW-620
SK-OV-3 = system: SK-OV-3
CCRF-CEM = system: CCRF-CEM
SF-268 = system: SF-268
NCI-H460 = system: NCI-H460
DMS-273 = system: DMS-273
Hs-578T = system: Hs-578T
K562 = system: K562
DMS-114 = system: DMS-114
MDA-MB-435 = system: MDA-MB-435
T47D = system: T47D
NCI-H522 = system: NCI-H522
KM12 = system: KM12
DLD-1 = system: DLD-1
MDA-MB-231 = system: MDA-MB-231
OVCAR-4 = system: OVCAR-4
BT-549 = system: BT-549
MCF7 = system: MCF7
SK-MEL-5 = system: SK-MEL-5
A498 = system: A498
DU-145 = system: DU-145
MDA-N = system: MDA-N
IGROV-1 = system: IGROV-1
PC-3 = system: PC-3
NCI/ADR-RES = system: NCI/ADR-RES
M14 = system: M14
CAKI-1 = system: CAKI-1

## COc1ccc(CNc2nc3ccc(C(F)(F)F)cc3nc2-c2ccccc2)cc1OC
786-0
  GI50: > 10 µM (inactive)
NCI-H23
  GI50: 78.7 µM (inactive)
M19-MEL
  GI50: > 100 µM (inactive)
UO-31
  GI50: 47.6 µM (inactive)
HCT-116
  GI50: 20.7 µM (inactive)
RXF 393
  GI50: 8.89 µM (inactive)
ACHN
  GI50: 27.7 µM (inactive)
HOP-62
  GI50: > 100 µM (inactive)
OVCAR-8
  GI50: > 100 µM (inactive)
KM-20L2
  GI50: 47.6 µM (inactive)
HL-60
  GI50: 6.98 µM (inactive)
OVCAR-3
  GI50: 60.8 µM (inactive)
HCC 2998
  GI50: 13.9 µM (inactive)
TK-10
  GI50: 71.6 µM (inactive)
HT-29
  GI50: 61.5 µM (inactive)
SR
  GI50: 6.64 µM (inactive)
HOP-18
  GI50: > 100 µM (inactive)
RPMI-8226
  GI50: 35.9 µM (inactive)
LOX IMVI
  GI50: 36.8 µM (inactive)
SK-MEL-28
  GI50: > 100 µM (inactive)
LXFL 529
  GI50: 43.4 µM (inactive)
SNB-78
  GI50: > 100 µM (inactive)
UACC-62
  GI50: 30.1 µM (inactive)
U-251
  GI50: > 100 µM (inactive)
SNB-75
  GI50: 11 µM (inactive)
UACC-257
  GI50: 25.2 µM (inactive)
COLO 205
  GI50: 6.41 µM (inactive)
SNB-19
  GI50: > 100 µM (inactive)
HOP-92
  GI50: 2.9 µM (inactive)
OVCAR-5
  GI50: > 100 µM (inactive)
HCT-15
  GI50: 25.1 µM
EKVX
  GI50: > 100 µM (inactive)
SK-MEL-2
  GI50: > 100 µM (inactive)
SF-539
  GI50: 54.3 µM (inactive)
SF-295
  GI50: 42.9 µM (inactive)
A549
  GI50: 31.3 µM (inactive)
RXF 631
  GI50: 16.7 µM (inactive)
MOLT-4
  GI50: 6.71 µM (inactive)
NCI-H226
  GI50: > 100 µM (inactive)
Malme-3M
  GI50: 73.5 µM (inactive)
SN12C
  GI50: 46.2 µM (inactive)
XF498
  GI50: 13.2 µM (inactive)
SW-620
  GI50: > 100 µM (inactive)
SK-OV-3
  GI50: > 100 µM (inactive)
CCRF-CEM
  GI50: 9.91 µM (inactive)
SF-268
  GI50: 63.2 µM (inactive)
NCI-H460
  GI50: 21.2 µM (inactive)
DMS-273
  GI50: 35.1 µM (inactive)

## ClCCCN1CCN(CCCl)CC1
786-0
  GI50: 49.7 µM (inactive)
Hs-578T
  GI50: 305 µM (inactive)
NCI-H23
  GI50: 69.8 µM (inactive)
M19-MEL
  GI50: 226 µM (inactive)
UO-31
  GI50: 109 µM (inactive)
HCT-116
  GI50: 195 µM (inactive)
RXF 393
  GI50: 166 µM (inactive)
ACHN
  GI50: 11.1 µM (inactive)
K562
  GI50: 212 µM (inactive)
DMS-114
  GI50: 28.9 µM (inactive)
HOP-62
  GI50: 24.1 µM (inactive)
OVCAR-8
  GI50: 120 µM (inactive)
KM-20L2
  GI50: 269 µM (inactive)
HL-60
  GI50: 4.51 µM (inactive)
OVCAR-3
  GI50: 167 µM (inactive)
MDA-MB-435
  GI50: 282 µM (inactive)
HCC 2998
  GI50: 346 µM (inactive)
TK-10
  GI50: 357 µM (inactive)
T47D
  GI50: 95.5 µM (inactive)
HT-29
  GI50: 242 µM (inactive)
NCI-H522
  GI50: 121 µM (inactive)
SR
  GI50: 7.98 µM (inactive)
HOP-18
  GI50: > 553 µM (inactive)
RPMI-8226
  GI50: 205 µM (inactive)
LOX IMVI
  GI50: 59.8 µM (inactive)
SK-MEL-28
  GI50: 491 µM (inactive)
SNB-78
  GI50: 135 µM (inactive)
UACC-62
  GI50: 10.5 µM (inactive)
U-251
  GI50: 118 µM (inactive)
KM12
  GI50: 552 µM (inactive)
SNB-75
  GI50: 119 µM (inactive)
DLD-1
  GI50: 167 µM (inactive)
UACC-257
  GI50: 284 µM (inactive)
COLO 205
  GI50: 161 µM (inactive)
MDA-MB-231
  GI50: 324 µM (inactive)
SNB-19
  GI50: 182 µM (inactive)
HOP-92
  GI50: 105 µM (inactive)
OVCAR-5
  GI50: 250 µM (inactive)
HCT-15
  GI50: 189 µM
OVCAR-4
  GI50: 186 µM (inactive)
BT-549
  GI50: 124 µM (inactive)
EKVX
  GI50: 352 µM (inactive)
MCF7
  GI50: 65.5 µM (inactive)
SK-MEL-2
  GI50: 238 µM (inactive)
SK-MEL-5
  GI50: 239 µM (inactive)
A498
  GI50: 261 µM (inactive)
DU-145
  GI50: 57.3 µM (inactive)
MDA-N
  GI50: 191 µM (inactive)
SF-539
  GI50: 35.6 µM (inactive)
SF-295
  GI50: 34.3 µM (inactive)
A549
  GI50: 110 µM (inactive)
MOLT-4
  GI50: 5.24 µM (inactive)
NCI-H226
  GI50: 215 µM (inactive)
IGROV-1
  GI50: 120 µM (inactive)
PC-3
  GI50: 383 µM (inactive)
Malme-3M
  GI50: 142 µM (inactive)
NCI/ADR-RES
  GI50: 127 µM (inactive)
SN12C
  GI50: 34.4 µM (inactive)
M14
  GI50: 137 µM (inactive)
XF498
  GI50: 46.3 µM (inactive)
SW-620
  GI50: 252 µM (inactive)
SK-OV-3
  GI50: 56.2 µM (inactive)
CAKI-1
  GI50: 15.2 µM (inactive)
CCRF-CEM
  GI50: 7.62 µM (inactive)
SF-268
  GI50: 57.3 µM (inactive)
NCI-H460
  GI50: 6.24 µM (inactive)
DMS-273
  GI50: 28.9 µM (inactive)
